Laboratory results taken from patent US20060079453A1, “Hla binding peptides and their uses” (priority 2002, published 2006).
Read-outs that look alike come from different tables or passages of the source. No end group written: not given here.

Assays:
Test in all cases: biochemical
Format in all cases: binding
[1] = biological target: HLA-DR DRB1*0301 (DR3) (Homo sapiens, UniProt P01903+P01911, A100K/A102G/A103R/A169T/F55Y/I96L/K41T/L162R/M171V/P40S/Q125H/Q178H/Q39Y/R42S/S66N/T106N/T262R/W38E/Y61H)
[2] = biological target: HLA-DR DRB1*0901 (DR9) (Homo sapiens, UniProt P01903+P01911, A100R/A103E/D57H/D86V/F55Y/F60I/F76Y/I96F/K127E/L162R/M171V/P40D/Q125H/Q99R/R33Q/R42F/S133A/S66N/T210M/V115G/W38K/Y107V/Y59G/Y89S)
[3] = biological target: HLA-DR DRB1*0401 (DR4) (Homo sapiens, UniProt P01903+P01911, A100K/A169T/F76Y/I96L/K127E/L162R/M171V/N62H/P40V/Q125Y/R42H/S133A/S149N/S66Y/V115G/V209L/W38E)
[4] = biological target: HLA-DR DRB1*0405 (DR4) (Homo sapiens, UniProt P01903+P01911, A100R/A169T/D86S/F76Y/I96L/K127E/L162R/M171V/N62H/P40V/Q125Y/R42H/S133A/S149N/S66Y/V115G/V209L/W38E)
[5] = biological target: HLA-DR DRB1*0101 (DR1) (Homo sapiens, UniProt P01903+P01911, A100R/D57E/F55L/F60I/F76Y/I96L/L162R/M171V/P40L/Q125E/R42F/V115G/Y59C)
[6] = biological target: HLA-DR DRB1*0701 (DR7) (Homo sapiens, UniProt P01903+P01911, A100R/A102G/A103Q/D57E/D86V/E43K/F76Y/K127E/L162R/M171V/P40G/Q125H/Q99D/R33Q/R42Y/R54Q/S133A/S66F/T210M/V115G/Y107V/Y59L/Y89S)
[7] = biological target: HLA-DR DRB4*0101 (DR53) (Homo sapiens, UniProt P01903+P13762, G164S); conditions: DRB4 *0101
[8] = biological target: HLA-DR DRB1*1501 (DR15) (Homo sapiens, UniProt P01903+P01911); conditions: DRBI *1501
[9] = biological target: HLA-DR DRB1*1302 (DR13) (Homo sapiens, UniProt P01903+P01911, A100E/A169T/K41T/L162R/M171V/P40S/Q125H/Q178H/Q39Y/Q99D/R42S/S66N/T262R/V115G/W38E/Y61H); conditions: DRBI *1302
[10] = biological target: HLA-DR DRB1*1101 (DR11) (Homo sapiens, UniProt P01903+P01911, A100R/A169T/A87E/I96F/K41T/L162R/M171V/P40S/Q125H/Q178H/Q39Y/Q99D/R42S/S66Y/T262R/V115G/W38E); conditions: DRB1 *1101
[11] = biological target: HLA-DR DRB5*0101 (DR51) (Homo sapiens, UniProt P01903+Q30154); conditions: DRB5 *0101

Sequence of HLA-DR DRB1*1302 (DR13) (P01903 26-254 limits assumed, other chains not shown): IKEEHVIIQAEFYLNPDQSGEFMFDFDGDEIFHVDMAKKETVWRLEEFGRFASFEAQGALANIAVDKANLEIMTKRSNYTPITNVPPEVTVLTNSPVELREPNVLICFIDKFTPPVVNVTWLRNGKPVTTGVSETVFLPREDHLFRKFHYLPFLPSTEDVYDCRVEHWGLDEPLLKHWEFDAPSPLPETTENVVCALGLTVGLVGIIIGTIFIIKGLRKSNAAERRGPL
Sequence of HLA-DR DRB1*1101 (DR11) (P01903 26-254 limits assumed, other chains not shown): as above
Sequence of HLA-DR DRB1*0301 (DR3) (P01903 26-254 limits assumed, other chains not shown): as above

Row | Compound | IC50 ([1]; read-out: DRB1 *0301) | IC50 ([2]; read-out: DRB1 *0901) | IC50 ([3]; read-out: DRB1 *0401) | IC50 ([4]; read-out: DRB1 *0405) | IC50 ([5]; read-out: DRB1 *0101) | IC50 ([6]; read-out: DRB1 *0701) | IC50 [1] | IC50 ([2]; DRB1 *0901) | IC50 ([4]; DRB1 *0405) | IC50 ([5]; DRB1 *0101) | IC50 [7] | IC50 ([6]; DRB1 *0701) | IC50 [8] | IC50 [9] | IC50 [10] | IC50 [11] | IC50 ([3]; DRB1 *0401)
1 | RLFDNAMLRAHRL | 27 nM | > 59500 nM | 6290 nM | 4250 nM | 2.3 nM | 3300 nM |  |  |  |  |  |  |  |  |  |  | 
2 | LRVVQQLLMGALTVT |  |  |  |  |  |  | 21700 nM | 204 nM | 85 nM | 5.7 nM | 7.7 nM | 82 nM | 56 nM | 8.9 nM |  |  | 
3 | CSCC[C@H](NC(=O)[C@H](Cc1ccc(O)cc1)NC(=O)[C@H](CCC(=O)O)NC(=O)[C@@H](N)Cc1c[nH]cn1)C(=O)N[C@@H](CC(C)C)C(=O)N[C@@H](CC(=O)O)C(=O)N[C@@H](CC(C)C)C(=O)N[C@@H](CCC(N)=O)C(=O)N1CCC[C@H]1C(=O)N[C@@H](CCC(=O)O)C(=O)N[C@H](C(=O)N[C@H](C(=O)N[C@@H](CC(=O)O)C(=O)N[C@@H](CC(C)C)C(=O)N[C@@H](Cc1ccc(O)cc1)C(=O)O)[C@@H](C)O)[C@@H](C)O |  |  |  |  |  |  |  | 21300 nM | 2290 nM |  | 2100 nM | > 18600 nM | 30900 nM | 13000 nM | > 56200 nM | > 22900 nM | 
4 | TIVYRDDTPHGVCTK |  |  |  |  |  |  |  | > 39100 nM | > 9750 nM | 3800 nM | > 21500 nM | > 35600 nM | 5450 nM | 6280 nM | > 18000 nM | > 62300 nM | 
5 | CSNLSTCVLQKLSQE | > 205000 nM | 7220 nM |  | 5340 nM |  | 31800 nM |  |  |  |  |  |  |  |  |  |  | 
6 | VYDFVFADLRIVYRD | 2.2 nM | 198 nM | 475 nM | 717 nM | 98 nM |  |  |  |  |  |  |  |  |  |  |  | 
7 | DFAFTDLTIVYRDDT |  |  |  |  |  |  | 23 nM | 1440 nM | 40 nM |  | 21600 nM |  | 3650 nM | 5010 nM |  | 675 nM | 80 nM
8 | RETLQEIVLHLEPQN |  |  |  |  |  |  |  | 19100 nM | 829 nM | 1590 nM | 95 nM | 25900 nM | 16200 nM | 11400 nM | 7900 nM | > 55100 nM | 2940 nM
9 | LSFFLKEKGGLDGL | > 341000 nM | 3500 nM |  | 983 nM |  | 20000 nM |  |  |  |  |  |  |  |  |  |  | 
10 | DFAFADLTVVYREGN |  |  |  |  |  |  |  | 322 nM | 60 nM | 3290 nM | 18000 nM | 1730 nM | 4920 nM | 9630 nM | > 18000 nM | 39800 nM | 141 nM
11 | CC[C@H](C)[C@H](N)C(=O)N[C@@H](CCCNC(=N)N)C(=O)N[C@H](C(=O)N[C@@H](CC(C)C)C(=O)N[C@@H](CCC(=O)O)C(=O)N[C@@H](CC(=O)O)C(=O)N[C@@H](CC(C)C)C(=O)N[C@@H](CC(C)C)C(=O)N[C@@H](CCSC)C(=O)NCC(=O)N[C@H](C(=O)N[C@@H](CC(C)C)C(=O)NCC(=O)N[C@H](C(=O)N[C@H](C(=O)O)C(C)C)[C@@H](C)CC)[C@@H](C)O)[C@@H](C)O |  |  |  |  |  |  | 5210 nM | 1720 nM | 61 nM | 16 nM | 23 nM | 895 nM |  | 789 nM |  |  | 95 nM
12 | FVVYRDSIPHAACHK |  |  |  |  |  |  | 200 nM | 2120 nM | 704 nM | 587 nM | 18100 nM |  | 349 nM | 1850 nM |  | 2340 nM | 10 nM
13 | WYRYSVYGTTLEKLT |  |  |  |  |  |  | 26600 nM | 284 nM | 8.5 nM | 163 nM | 1040 nM | 107 nM | 421 nM | 805 nM |  | 62 nM | 249 nM
14 | RVIKNSIRLTL |  |  |  |  |  |  | 584 nM | 2570 nM | 80700 nM | 3650 nM |  | 2240 nM | 4320 nM | 32 nM | 1740 nM | 8830 nM | 9250 nM
15 | VCLLFYSKVRKYRYY |  |  |  |  |  |  | 276 nM | 1800 nM | 73 nM | 960 nM | 2340 nM | 258 nM | 61 nM |  | 326 nM |  | 
16 | MLDLQPETTDLYCYE | 720 nM | > 32200 nM | 1910 nM | 4250 nM |  | > 72300 nM |  |  |  |  |  |  |  |  |  |  | 
17 | NYSVYGNTLEQTVKK |  |  |  |  |  |  |  | 47500 nM | 822 nM | 14100 nM | > 25100 nM | > 14600 nM | 15600 nM | 8610 nM | > 56700 nM |  | 1930 nM
18 | LTIVYRDDTPHGVCT | 187 nM | > 25300 nM | 23 nM | > 8590 nM | > 15400 nM | > 72300 nM |  |  |  |  |  |  |  |  |  |  | 
19 | KDYILDLQPETTDLH |  |  |  |  |  |  |  | > 49900 nM | 2770 nM |  | 490 nM | > 72300 nM | > 37400 nM | 23700 nM | > 17400 nM | > 55100 nM | 1020 nM
20 | GEALSTLVLNRLKVG |  |  |  |  |  |  | 11800 nM | 20200 nM | 14800 nM | 719 nM | 1020 nM | 3190 nM |  | 29 nM | 79 nM | 46 nM | 3050 nM
21 | DLRVVQQLLMGALTV |  |  |  |  |  |  | 26000 nM | 1840 nM | 84 nM | 8.4 nM | 9.5 nM | 508 nM |  | 57 nM |  |  | 
22 | CKFVVQLDIQSTKED [CKFVVQLDIQSTKED] |  |  |  |  |  |  |  | 19300 nM | 374 nM |  | 301 nM | 4550 nM | 22900 nM | > 11400 nM | > 31600 nM | > 31400 nM | 
23 | LQQLFLSTLSFVCPW |  |  |  |  |  |  | 2040 nM | 152 nM | 94 nM | 121 nM | 22 nM | 272 nM |  |  | 11700 nM | 36900 nM | 
24 | CC[C@H](C)[C@H](NC(=O)[C@H](CCC(=O)O)NC(=O)[C@H](CC(C)C)NC(=O)[C@H](C)NC(=O)[C@H](CO)NC(=O)[C@H](CO)NC(=O)[C@H](CC(C)C)NC(=O)[C@H](CCC(=O)O)NC(=O)[C@H](Cc1c[nH]cn1)NC(=O)[C@H](CC(C)C)NC(=O)[C@H](CCCCN)NC(=O)[C@H](CCCNC(=N)N)NC(=O)[C@@H]1CCCN1)C(=O)N1CCC[C@H]1C(=O)N[C@@H](Cc1ccc(O)cc1)C(=O)O |  |  |  |  |  |  | 16100 nM | 213 nM | 80 nM |  |  |  | 1120 nM | 51 nM |  | > 10700 nM | 5280 nM
25 | QDYVLDLQPEATDLH |  |  |  |  |  |  |  | > 39900 nM | 5590 nM | 13400 nM | 1850 nM | > 18600 nM | > 62800 nM | > 11500 nM | > 11900 nM | > 22900 nM | 253 nM
26 | REVYKFLFTDLRIVY |  |  |  |  |  |  |  | 204 nM | 52 nM | 8.7 nM | 203 nM | 54 nM | 258 nM | 80 nM | 2260 nM | 155 nM | 
